# Calls of active or inactive are those of the source. The calls are words filed in the database; no cut-off is given here.
# Legend:
# [1] = Cytotoxicity against human Jurkat T cells assessed as cell survival at 10 uM measured after 3 days by MTT assay; assay type: toxicity, cell-based; settings: read-out: Survival
# Jurkat [2] = test: Immunosuppressive activity in human PMA/ionomycin stimulated Jurkat T cells assessed as suppression of IL2 production at 1 uM pretreated with cells followed by PMA/ionomycin stimulation measured after 13 hrs by ELISA; assay type: functional
# Jurkat [3] = test: Immunosuppressive activity in human PMA/ionomycin stimulated Jurkat T cells assessed as suppression of IL2 production pretreated with cells followed by PMA/ionomycin stimulation measured after 13 hrs by ELISA; assay type: functional, cell-based
# [4] = target: T1, Nuclear factor of activated T-cells, cytoplasmic 1 (Homo sapiens) (UniProt O95644); test: Reduction in NFATc1 nuclear localization in human anti-CD3/anti-CD28 stimulated Jurkat T cells at 10 ug measured after 15 mins by SDS-PAGE and immunoblot analysis; assay type: cell-based
# T1 sequence (whole entry): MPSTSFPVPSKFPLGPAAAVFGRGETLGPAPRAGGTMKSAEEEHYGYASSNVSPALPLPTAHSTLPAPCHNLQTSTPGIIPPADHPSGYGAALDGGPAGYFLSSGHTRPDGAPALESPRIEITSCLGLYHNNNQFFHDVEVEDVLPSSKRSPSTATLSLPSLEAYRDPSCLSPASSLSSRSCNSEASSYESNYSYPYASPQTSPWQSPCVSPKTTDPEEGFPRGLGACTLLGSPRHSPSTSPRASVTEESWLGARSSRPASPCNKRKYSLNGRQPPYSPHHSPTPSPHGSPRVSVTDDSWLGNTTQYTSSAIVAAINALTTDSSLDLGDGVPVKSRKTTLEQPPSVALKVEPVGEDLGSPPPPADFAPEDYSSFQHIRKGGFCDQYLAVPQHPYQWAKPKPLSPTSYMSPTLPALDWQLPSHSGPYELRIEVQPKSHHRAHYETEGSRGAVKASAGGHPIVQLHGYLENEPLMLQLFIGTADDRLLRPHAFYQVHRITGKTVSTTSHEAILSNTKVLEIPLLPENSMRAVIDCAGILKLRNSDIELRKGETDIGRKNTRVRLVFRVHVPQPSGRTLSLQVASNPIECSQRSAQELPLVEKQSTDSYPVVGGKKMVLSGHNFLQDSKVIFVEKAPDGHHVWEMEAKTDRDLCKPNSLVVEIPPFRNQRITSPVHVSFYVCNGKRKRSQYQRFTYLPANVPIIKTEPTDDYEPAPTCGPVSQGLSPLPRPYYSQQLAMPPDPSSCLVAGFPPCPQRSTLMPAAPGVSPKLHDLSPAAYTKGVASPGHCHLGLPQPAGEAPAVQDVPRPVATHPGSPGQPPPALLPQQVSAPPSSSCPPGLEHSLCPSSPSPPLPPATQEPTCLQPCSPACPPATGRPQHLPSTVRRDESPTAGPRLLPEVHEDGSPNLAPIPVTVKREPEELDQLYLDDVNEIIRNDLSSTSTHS
# [5] = Half life in rat liver […] S9 fraction at 5 uM in presence of NADPH by LC-MS/MS analysis; assay type: ADME, subcellular
# [6] = target: T2, NF-kappa-B inhibitor alpha (Homo sapiens) (UniProt P25963); test: Inhibition of IkappaBalpha phosphorylation in human anti-CD3/anti-CD28 stimulated Jurkat T cells at 10 uM pretreated with cells followed by anti-CD3/anti-CD28 stimulation measured up to 60 mins immunoblot analysis; assay type: cell-based
# T2 sequence (whole entry): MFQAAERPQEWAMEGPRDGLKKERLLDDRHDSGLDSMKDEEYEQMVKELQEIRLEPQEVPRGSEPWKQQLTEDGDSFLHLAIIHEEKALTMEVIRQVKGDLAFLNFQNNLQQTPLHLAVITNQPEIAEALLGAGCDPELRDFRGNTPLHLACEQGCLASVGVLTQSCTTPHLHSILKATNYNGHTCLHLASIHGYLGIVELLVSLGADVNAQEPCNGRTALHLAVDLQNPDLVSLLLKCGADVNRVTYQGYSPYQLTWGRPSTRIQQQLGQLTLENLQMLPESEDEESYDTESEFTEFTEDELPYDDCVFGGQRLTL
# Jurkat [7] = test: Inhibition of NFkappaB activation in human anti-CD3/anti-CD28 stimulated Jurkat T cells at 10 uM measured by renilla luciferase reporter gene assay relative to control; assay type: cell-based
# CYP2C9 [8] = target: T3, CYP2C9 (Homo sapiens, UniProt P11712); test: Inhibition of recombinant human CYP2C9 expressed in baculosomes at 1 uM preincubated with protein prior to substrate addition measured after 40 mins in presence of NADP regeneration system by fluorimetric analysis; assay type: ADME
# [9] = Half life in human liver S9 fraction at 5 uM in presence of NADPH by LC-MS/MS analysis; assay type: ADME, subcellular
# Jurkat [10] = test: Immunosuppressive activity in human anti-CD3/anti-CD28 stimulated Jurkat T cells assessed as suppression of IL2 production at 10 uM pretreated with cells followed by anti-CD3/CD28 stimulation measured after 13 hrs by ELISA; assay type: functional
# [11] = Half life in mouse liver […] S9 fraction at 5 uM in presence of NADPH by LC-MS/MS analysis; assay type: ADME, subcellular
# [12] = target: T4, Inhibitor of nuclear factor kappa-B kinase subunit beta (Homo sapiens) (UniProt O14920); test: Inhibition of recombinant full length human N-terminal His6-tagged IKKbeta expressed in baculovirus infected sf21 cells at 10 uM using IKKtide as substrate after 40 mins in presence of [gamma33P]ATP by scintillation counting method relative to control
# T4 sequence (whole entry): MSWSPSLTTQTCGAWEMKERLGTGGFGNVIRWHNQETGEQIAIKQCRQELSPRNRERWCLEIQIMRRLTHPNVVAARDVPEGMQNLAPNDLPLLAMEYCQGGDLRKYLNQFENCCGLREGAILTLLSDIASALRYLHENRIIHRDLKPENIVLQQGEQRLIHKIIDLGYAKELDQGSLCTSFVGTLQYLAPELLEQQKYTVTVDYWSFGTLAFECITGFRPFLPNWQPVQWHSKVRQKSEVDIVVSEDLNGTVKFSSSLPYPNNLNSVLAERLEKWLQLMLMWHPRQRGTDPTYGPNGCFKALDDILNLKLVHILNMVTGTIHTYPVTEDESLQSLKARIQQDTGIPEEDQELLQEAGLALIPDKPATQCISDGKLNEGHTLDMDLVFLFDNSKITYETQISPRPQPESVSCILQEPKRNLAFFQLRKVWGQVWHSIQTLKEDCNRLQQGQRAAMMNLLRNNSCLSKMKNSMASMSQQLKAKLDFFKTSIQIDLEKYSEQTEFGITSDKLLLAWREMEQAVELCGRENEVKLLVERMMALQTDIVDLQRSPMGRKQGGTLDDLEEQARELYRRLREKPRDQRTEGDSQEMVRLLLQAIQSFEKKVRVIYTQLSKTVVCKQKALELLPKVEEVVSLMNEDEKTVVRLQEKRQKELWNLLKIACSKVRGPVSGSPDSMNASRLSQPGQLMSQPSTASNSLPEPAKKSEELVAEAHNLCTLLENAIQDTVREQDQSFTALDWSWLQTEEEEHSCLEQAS
# CYP2C9 [13] = target: T3, CYP2C9; test: Inhibition of recombinant human CYP2C9 expressed in baculosomes at 10 uM preincubated with protein prior to substrate addition measured after 40 mins in presence of NADP regeneration system by fluorimetric analysis; assay type: ADME
# Jurkat [14] = test: Immunosuppressive activity in human PMA/ionomycin stimulated Jurkat T cells assessed as suppression of IL2 production at 10 uM pretreated with cells followed by PMA/ionomycin stimulation measured after 13 hrs by ELISA; assay type: functional
# T3 sequence (P11712 whole entry): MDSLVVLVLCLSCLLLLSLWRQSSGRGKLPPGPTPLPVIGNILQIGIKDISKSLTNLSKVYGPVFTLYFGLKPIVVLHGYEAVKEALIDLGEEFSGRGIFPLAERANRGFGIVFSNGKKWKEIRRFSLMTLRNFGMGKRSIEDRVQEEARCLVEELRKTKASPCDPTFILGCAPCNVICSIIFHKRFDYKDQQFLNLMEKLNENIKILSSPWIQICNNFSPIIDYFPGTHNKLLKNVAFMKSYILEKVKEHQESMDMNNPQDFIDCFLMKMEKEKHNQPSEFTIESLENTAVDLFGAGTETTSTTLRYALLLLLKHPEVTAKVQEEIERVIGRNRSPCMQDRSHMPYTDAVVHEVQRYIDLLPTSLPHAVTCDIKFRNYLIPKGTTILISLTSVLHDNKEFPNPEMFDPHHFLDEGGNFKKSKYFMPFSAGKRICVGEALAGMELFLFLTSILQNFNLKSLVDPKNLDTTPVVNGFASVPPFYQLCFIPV
SMILES,"viability at 72 h, 10 µM [1]",inhibition at 1 µM (Jurkat [2]),IC50 (Jurkat [3]),also measured
O=C(NCCc1ccccc1)c1cc2c([N+](=O)[O-])cccc2n(Cc2ccc(Cl)cc2)c1=O,97%,39%,–,–
COc1ccc(Cn2c(=O)c(C(=O)NCCc3ccc(Cl)cc3)cc3c(N)cccc32)cc1,96%,19%,–,–
COc1ccc(Cn2c(=O)c(C(=O)NCCc3ccc4c(c3)OCO4)cc3c(N)cccc32)cc1,96%,31%,–,–
COc1ccc(Cn2c(=O)c(C(=O)NCCc3ccccc3)cc3c(N)cccc32)cc1,98%,41%,–,–
O=C(NCCc1ccccc1)c1cc2c([N+](=O)[O-])cccc2n(Cc2ccc([N+](=O)[O-])cc2)c1=O,97%,–,353 nM,–
O=C(NCCc1ccccc1)c1cc2c([N+](=O)[O-])cccc2n(Cc2ccc(F)cc2)c1=O,98%,–,720 nM,–
COCCCNC(=O)c1cc2c(N)cccc2n(Cc2ccc(OC)cc2)c1=O,97%,–,–,–
COc1ccc(Cn2c(=O)c(C(=O)NCCCc3ccccc3)cc3c(N)cccc32)cc1,97%,11%,–,–
COc1ccc(Cn2c(=O)c(C(=O)NCCc3ccncc3)cc3c(N)cccc32)cc1,93%,16%,–,–
CCc1ccc(Cn2c(=O)c(C(=O)NCCc3ccccc3)cc3c(Cl)cccc32)cc1,97%,–,401 nM,–
Cc1ccc(Cn2c(=O)c(C(=O)NCCc3ccccc3)cc3c([N+](=O)[O-])cccc32)cc1,81%,–,–,–
COc1ccc(Cn2c(=O)c(C(=O)NCCc3ccc(Br)cc3)cc3c(N)cccc32)cc1,93%,38%,–,–
N#Cc1ccc(Cn2c(=O)c(C(=O)NCCc3ccccc3)cc3c([N+](=O)[O-])cccc32)cc1,95%,28%,–,–
CC(C)(C)c1ccc(Cn2c(=O)c(C(=O)NCCc3ccccc3)cc3c([N+](=O)[O-])cccc32)cc1,94%,–,386 nM,–
COc1ccc(Cn2c(=O)c(C(=O)NCCc3ccc(O)c(O)c3)cc3c(N)cccc32)cc1,98%,14%,–,–
CC(C)c1ccc(Cn2c(=O)c(C(=O)NCCc3ccccc3)cc3c([N+](=O)[O-])cccc32)cc1,93%,–,80 nM,"inhibition [4]: Active; half-life at 5 µM [5]: 7 min; inhibition [6]: Active; inhibition (Jurkat [7]): Active; inhibition at 40 min, 1 µM (CYP2C9 [8]): 30%; half-life at 5 µM [9]: 7 min; inhibition at 10 µM (Jurkat [10]): 83%; half-life at 5 µM [11]: 7 min; inhibition [12]: 29%; inhibition at 40 min, 10 µM (CYP2C9 [13]): 65%"
COc1cccc(Cn2c(=O)c(C(=O)NCCc3ccccc3)cc3c([N+](=O)[O-])cccc32)c1,97%,16%,–,–

SMILES,"viability at 72 h, 10 µM [1]",inhibition at 1 µM (Jurkat [2]),IC50 (Jurkat [3]),also measured
CCc1ccc(CCNC(=O)c2cc3c(N)cccc3n(Cc3ccc(OC)cc3)c2=O)cc1,97%,–,–,–
CCN(C(=O)c1c(O)c2c(Cl)cccc2n(C)c1=O)c1ccccc1 [LAQUINIMOD],–,–,–,inhibition at 10 µM (Jurkat [14]): 16%
COc1ccc(Cn2c(=O)c(C(=O)NCCc3ccccc3)cc3ccc([N+](=O)[O-])cc32)cc1,95%,–,–,–
COc1ccc(Cn2c(=O)c(C(=O)NCCc3ccc(O)cc3)cc3c(N)cccc32)cc1,97%,20%,–,–
O=C(NCCc1ccccc1)c1cc2c([N+](=O)[O-])cccc2n(Cc2ccc(OC(F)(F)F)cc2)c1=O,96%,–,160 nM,inhibition at 10 µM (Jurkat [10]): 79%
COc1ccc(Cn2c(=O)c(C(=O)NCCc3ccc(OC)c(O)c3)cc3c(N)cccc32)cc1,99%,37%,–,–
C/C=C/C[C@@H](C)[C@@H](O)[C@H]1C(=O)N[C@@H](CC)C(=O)N(C)CC(=O)N(C)[C@@H](CC(C)C)C(=O)N[C@@H](C(C)C)C(=O)N(C)[C@@H](CC(C)C)C(=O)N[C@@H](C)C(=O)N[C@H](C)C(=O)N(C)[C@@H](CC(C)C)C(=O)N(C)[C@@H](CC(C)C)C(=O)N(C)[C@@H](C(C)C)C(=O)N1C [CYCLOSPORINE],–,–,11 nM,–
COc1ccc(Cn2c(=O)c(C(=O)NCCc3ccccc3)cc3c([N+](=O)[O-])cccc32)cc1,96%,–,924 nM,–
O=C(NCCc1ccccc1)c1cc2c([N+](=O)[O-])cccc2n(Cc2ccc(Br)cc2)c1=O,64%,–,780 nM,–
COc1ccc(Cn2c(=O)c(C(=O)NCCc3ccccc3)cc3c(Cl)cccc32)cc1,87%,44%,–,–
CCc1ccc(Cn2c(=O)c(C(=O)NCCc3ccccc3)cc3c([N+](=O)[O-])cccc32)cc1,96%,–,155 nM,inhibition at 10 µM (Jurkat [10]): 81%
COc1ccc(Cn2c(=O)c(C(=O)NCc3ccccc3)cc3c(N)cccc32)cc1,98%,30%,–,–
COc1ccc(Cn2c(=O)c(C(=O)NCC(C)C)cc3c(N)cccc32)cc1,99%,–,–,–
COc1ccc(Cn2c(=O)c(C(=O)NCCc3ccc(C)cc3)cc3c(N)cccc32)cc1,99%,–,–,–
CC(C)c1ccc(Cn2c(=O)c(C(=O)NCCc3ccccc3)cc3c(Cl)cccc32)cc1,91%,–,256 nM,–
COc1ccc(CCNC(=O)c2cc3c(N)cccc3n(Cc3ccc(OC)cc3)c2=O)cc1,96%,25%,–,–
O=C(NCCc1ccccc1)c1cc2c([N+](=O)[O-])cccc2n(Cc2ccccc2)c1=O,91%,–,–,–

# Source: ChEMBL document CHEMBL3860071, “Discovery and structure-activity relationship studies of quinolinone derivatives as potent IL-2 suppressive agents” (Bioorg Med Chem, 2016)
